# Test results taken from ChEMBL document CHEMBL4308841, “Synthesis, in vitro antiproliferative activity, and kinase inhibitory effects of pyrazole-containing diarylureas and diarylamides” (Eur J Med Chem, 2018).
# Tests used:
# HT-29 [1] = test: Growth inhibition of human HT-29 cells assessed as cell growth at 10 uM incubated for 48 hrs by sulforhodamine B assay relative to control; format: functional; details: HT-29, 48 h, read-out: Activity
# CCRF-CEM = test: Growth inhibition of human CCRF-CEM cells incubated for 48 hrs by sulforhodamine B assay; format: functional, cell-based
# HOP-62 = test: Growth inhibition of human HOP62 cells incubated for 48 hrs by sulforhodamine B assay; format: functional, cell-based; details: HOP-62, 48 h
# NCI-H23 = test: Growth inhibition of human NCI-H23 cells incubated for 48 hrs by sulforhodamine B assay; format: functional, cell-based; details: NCI-H23, 48 h
# NCI-H460 = test: Growth inhibition of human NCI-H460 cells incubated for 48 hrs by sulforhodamine B assay; format: functional, cell-based; details: NCI-H460, 48 h
# SW-620 = test: Growth inhibition of human SW620 cells incubated for 48 hrs by sulforhodamine B assay; format: functional, cell-based; details: SW-620, 48 h
# M14 = test: Growth inhibition of human M14 cells incubated for 48 hrs by sulforhodamine B assay; format: functional, cell-based; details: M14, 48 h
# SK-MEL-5 = test: Growth inhibition of human SK-MEL-5 cells incubated for 48 hrs by sulforhodamine B assay; format: functional, cell-based; details: SK-MEL-5, 48 h
# SF-539 [2] = test: Growth inhibition of human SF539 cells assessed as cell growth at 0.01 uM incubated for 48 hrs by sulforhodamine B assay relative to control; format: functional; details: SF-539, 48 h, read-out: Activity
# SK-MEL-28 = test: Growth inhibition of human SK-MEL-28 cells assessed as cell growth at 0.01 uM incubated for 48 hrs by sulforhodamine B assay relative to control; format: functional; details: SK-MEL-28, 48 h, read-out: Activity
# OVCAR-4 [3] = test: Growth inhibition of human OVCAR4 cells assessed as cell growth at 0.01 uM incubated for 48 hrs by sulforhodamine B assay relative to control; format: functional; details: OVCAR-4, 48 h, read-out: Activity
# NCI-H522 = test: Growth inhibition of human NCI-H522 cells assessed as cell growth at 0.1 uM incubated for 48 hrs by sulforhodamine B assay relative to control; format: functional; details: NCI-H522, 48 h, read-out: Activity
# COLO 205 = test: Growth inhibition of human COLO205 cells assessed as cell growth at 0.1 uM incubated for 48 hrs by sulforhodamine B assay relative to control; format: functional; details: COLO 205, 48 h, read-out: Activity
# HT-29 [4] = test: Growth inhibition of human HT-29 cells assessed as cell growth at 0.1 uM incubated for 48 hrs by sulforhodamine B assay relative to control; format: functional; details: HT-29, 48 h, read-out: Activity
# SF-539 [5] = test: Growth inhibition of human SF539 cells assessed as cell growth at 0.1 uM incubated for 48 hrs by sulforhodamine B assay relative to control; format: functional; details: SF-539, 48 h, read-out: Activity
# Malme-3M = test: Growth inhibition of human MALME-3M cells assessed as cell growth at 0.1 uM incubated for 48 hrs by sulforhodamine B assay relative to control; format: functional; details: read-out: Activity
# UACC-257 = test: Growth inhibition of human UACC257 cells assessed as cell growth at 0.1 uM incubated for 48 hrs by sulforhodamine B assay relative to control; format: functional; details: UACC-257, 48 h, read-out: Activity
# OVCAR-4 [6] = test: Growth inhibition of human OVCAR4 cells assessed as cell growth at 0.1 uM incubated for 48 hrs by sulforhodamine B assay relative to control; format: functional; details: OVCAR-4, 48 h, read-out: Activity
# OVCAR-5 = test: Growth inhibition of human OVCAR5 cells assessed as cell growth at 0.1 uM incubated for 48 hrs by sulforhodamine B assay relative to control; format: functional; details: OVCAR-5, 48 h, read-out: Activity
# CAKI-1 = test: Growth inhibition of human Caki1 cells assessed as cell growth at 0.1 uM incubated for 48 hrs by sulforhodamine B assay relative to control; format: functional; details: CAKI-1, 48 h, read-out: Activity
# PC-3 = test: Growth inhibition of human PC3 cells assessed as cell growth at 0.1 uM incubated for 48 hrs by sulforhodamine B assay relative to control; format: functional; details: PC-3, 48 h, read-out: Activity
# A549 = test: Growth inhibition of human A549/ATCC cells assessed as cell growth at 1 uM incubated for 48 hrs by sulforhodamine B assay relative to control; format: functional; details: A549, 48 h, read-out: Activity
# HCC 2998 [7] = test: Growth inhibition of human HCC2998 cells assessed as cell growth at 1 uM incubated for 48 hrs by sulforhodamine B assay relative to control; format: functional; details: HCC 2998, 48 h, read-out: Activity
# T47D = test: Growth inhibition of human T47D cells assessed as cell growth at 1 uM incubated for 48 hrs by sulforhodamine B assay relative to control; format: functional; details: read-out: Activity
# NCI-H322M = test: Growth inhibition of human NCI-H322M cells assessed as cell growth at 100 uM incubated for 48 hrs by sulforhodamine B assay relative to control; format: functional; details: read-out: Activity
# HCC 2998 [8] = test: Growth inhibition of human HCC2998 cells assessed as cell growth at 100 uM incubated for 48 hrs by sulforhodamine B assay relative to control; format: functional; details: HCC 2998, 48 h, read-out: Activity
# U-251 = test: Growth inhibition of human U251 cells assessed as cell growth at 100 uM incubated for 48 hrs by sulforhodamine B assay relative to control; format: functional; details: U-251, 48 h, read-out: Activity
# DU-145 = test: Growth inhibition of human DU145 cells assessed as cell growth at 100 uM incubated for 48 hrs by sulforhodamine B assay relative to control; format: functional; details: DU-145, 48 h, read-out: Activity
# MDA-MB-231 = test: Growth inhibition of human MDA-MB-231 cells assessed as cell growth at 100 uM incubated for 48 hrs by sulforhodamine B assay relative to control; format: functional; details: MDA-MB-231, 48 h, read-out: Activity
# [9] = read-out: LC50 (the source's name)
# [10] = read-out: pLC50 (the source's name) (converted)
structure (smiles),measurement,setting,value
COc1cc(Cl)cc(-c2nn(-c3cccc(NC(=O)c4cccc(C(F)(F)F)c4)c3)cc2-c2ccncc2)c1,growth at 10 µM,HT-29 [1],42.5%
same,GI50,CCRF-CEM; read-out: GI50,4.38 µM
same,CC50,CCRF-CEM; [9],> 100 µM
same,TGI,CCRF-CEM; read-out: TGI,> 100 µM
same,GI50,CCRF-CEM; read-out: pGI50 (converted),4.37 µM
same,CC50,CCRF-CEM; [10],> 100 µM
same,TGI,CCRF-CEM; read-out: pTGI (converted),> 100 µM
same,GI50,HOP-62; read-out: GI50,> 100 µM
same,CC50,HOP-62; [9],> 100 µM
same,TGI,HOP-62; read-out: TGI,> 100 µM
same,GI50,HOP-62; read-out: pGI50 (converted),> 100 µM
same,CC50,HOP-62; [10],> 100 µM
same,TGI,HOP-62; read-out: pTGI (converted),> 100 µM
same,GI50,NCI-H23; read-out: GI50,5.74 µM
same,LC50,NCI-H23; read-out: LC50,> 100 µM
same,TGI,NCI-H23; read-out: TGI,> 100 µM
same,GI50,NCI-H23; read-out: pGI50 (converted),6.76 µM
same,LC50,NCI-H23; read-out: pLC50 (converted),> 100 µM
same,TGI,NCI-H23; read-out: pTGI (converted),> 100 µM
same,GI50,NCI-H460; read-out: GI50,5.17 µM
same,CC50,NCI-H460; [9],> 100 µM
same,TGI,NCI-H460; read-out: TGI,> 100 µM
same,GI50,NCI-H460; read-out: pGI50 (converted),5.13 µM
same,CC50,NCI-H460; [10],> 100 µM
same,TGI,NCI-H460; read-out: pTGI (converted),> 100 µM
same,GI50,SW-620; read-out: GI50,> 100 µM
same,LC50,SW-620; read-out: LC50,> 100 µM
same,TGI,SW-620; read-out: TGI,> 100 µM
same,GI50,SW-620; read-out: pGI50 (converted),> 100 µM
same,LC50,SW-620; read-out: pLC50 (converted),> 100 µM
same,TGI,SW-620; read-out: pTGI (converted),> 100 µM
same,GI50,M14; read-out: GI50,0.09 µM
same,CC50,M14; [9],> 100 µM
same,TGI,M14; read-out: TGI,> 100 µM
same,GI50,M14; read-out: pGI50 (converted),6.03 µM
same,CC50,M14; [10],> 100 µM
same,TGI,M14; read-out: pTGI (converted),> 100 µM
same,GI50,SK-MEL-5; read-out: GI50,5.43 µM
same,CC50,SK-MEL-5; [9],> 100 µM
same,TGI,SK-MEL-5; read-out: TGI,> 100 µM
same,GI50,SK-MEL-5; read-out: pGI50 (converted),5.37 µM
same,CC50,SK-MEL-5; [10],> 100 µM
same,TGI,SK-MEL-5; read-out: pTGI (converted),> 100 µM
same,growth at 0.01 µM,SF-539 [2],93%
same,growth at 0.01 µM,SK-MEL-28,105%
same,growth at 0.01 µM,OVCAR-4 [3],106%
same,growth at 0.1 µM,NCI-H522,83%
same,growth at 0.1 µM,COLO 205,101%
same,growth at 0.1 µM,HT-29 [4],93%
same,growth at 0.1 µM,SF-539 [5],100%
same,growth at 0.1 µM,Malme-3M,90%
same,growth at 0.1 µM,UACC-257,91%
same,growth at 0.1 µM,OVCAR-4 [6],95%
same,growth at 0.1 µM,OVCAR-5,94%
same,growth at 0.1 µM,CAKI-1,94%
same,growth at 0.1 µM,PC-3,52%
same,growth at 1 µM,A549,75%
same,growth at 1 µM,HCC 2998 [7],103%
same,growth at 1 µM,T47D,92%
same,growth at 100 µM,NCI-H322M,75%
same,growth at 100 µM,HCC 2998 [8],15%
same,growth at 100 µM,U-251,41%
same,growth at 100 µM,DU-145,50%
same,growth at 100 µM,MDA-MB-231,-14%
